{
  "source": "patent US20230263758A1",
  "about": "“COMPOSITIONS OF EDTA HAVING ACTIVITY AGAINST PLANKTONIC AND BIOFILM CELLS OF CLINICALLY RELEVANT PATHOGENS” (SterileCare Inc., priority 2022, published 2023)",
  "key": {"[1]": {"system": "48-h-old biofilms of bacterial and fungal strains", "assay": "MBEC assay, summary, 24 h exposure of 48-h-old biofilms", "assay_type": "cell-based", "method": "A biofilm cultivation cell composition was provided. This fifth composition was created using an MBEC Assay® biofilm inoculator, consisting of a polystyrene lid with 96 downward-protruding pegs and a corresponding base used to grow biofilms. A standardized inoculum was diluted in an appropriate biofilm growth medium to achieve a viable cell count of 1.5×10^6 CFU/mL of bacterial cells or 5×10^5 CFU/mL of fungal cells. Then, 150 μL of this inoculum was transferred into each appropriate well, and the peg lids were inserted into the microtiter plates. The plates were sealed with Parafilm and were incubated at optimum temperature for 48 h with slight rocking for bacteria and shaking at 200 rpm for fungal strains. After incubation, the peg lid was removed from the base and rinsed twice with sterile phosphate-buffered saline (PBS) for 2 min to remove loosely attached non-sessile cells. Before the antimicrobial challenge, the pegs in column 1 (n=8) were considered the biofilm growth control; these pegs were removed from the lids, placed into 200 μL of recovery medium, and analyzed for starting biofilm cell numbers as described below. […] After the antimicrobial challenge, the pegs were rinsed twice with sterile PBS for 2 min and placed into a new 96-well plate containing 200 μL of recovery medium. The recovery plates were sealed with Parafilm, and biofilm cells were dislodged from the pegs by sonication for 30 min with a Branson 3510 bath sonicator. The biofilm cells in the recovery medium were serially diluted, and a drop dilution assay was performed to enumerate the viable cells. MBEC values were determined as the minimum concentration of antimicrobials that yielded a viable cell count at or lower than the 125 CFU/mL detection limit."}, "MRSA ON184": {"system": "MRSA ON184", "assay": "Checkerboard titration, FICI", "assay_type": "cell-based, Staphylococcus aureus", "settings": "EDTA + ethanol checkerboard", "method": "(§1) A fourth composition and solution included tetrasodium EDTA with ethanol or chlorhexidine HCl. This fourth composition and solution were created using checkerboard titration methods using micro broth dilution in 96-well microtiter plates. The concentrations of antimicrobials used were based on previously determined MIC values. Briefly, 200 μL of two-fold dilutions of tetrasodium EDTA and ethanol or chlorhexidine HCl were prepared in MH or MH II broth with standardized cell suspension. […] Microtiter plates were incubated at 37° C. for 24 h, and the results were analyzed. Each test was performed in duplicate and included a growth control without adding any antimicrobials."}, "C. albicans ON47": {"system": "C. albicans ON47", "assay": "Checkerboard titration, FICI", "assay_type": "cell-based, Candida albicans", "settings": "EDTA + ethanol checkerboard", "method": "as §1"}, "[2]": {"system": "48-h old biofilms of bacterial and fungal test organisms", "assay": "Rapid biofilm eradication, 2-h exposure", "assay_type": "cell-based", "settings": "each agent alone at its MBEC", "method": "Determining rapid biofilm eradication by tetrasodium EDTA, ethanol, and chlorhexidine HCl alone and in combination was performed. After biofilm formation, control pegs (n=6) were removed and analyzed to determine the starting biofilm cell numbers via the drop dilution method. The 48-h old biofilms on the pegs were exposed to different concentrations of test antimicrobials, dissolved in an appropriate growth medium, for two h to evaluate their efficacy alone and in combination. […] Following treatment, pegs were washed twice with sterile PBS, and the biofilm cells were dislodged into recovery medium and enumerated as described above.\nThe method for rapid biofilm eradication ability of test antimicrobials alone and in combination against 48-h-old biofilms within two h exposure time included (1) choosing different concentrations of test antimicrobials to assess their potency in eradicating preformed biofilms of study organisms within two h. Then (2) the quantitative recovery from biofilms following exposure to the antimicrobial solutions for bacterial strains (FIGS. 4A-4C) and fungal strains (FIG. 5) was evaluated."}, "S. epidermidis SK9": {"system": "S. epidermidis SK9", "assay": "Checkerboard titration, FICI", "assay_type": "cell-based, Staphylococcus epidermidis", "settings": "EDTA + ethanol checkerboard", "method": "as §1"}, "Escherichia coli ON29": {"system": "Escherichia coli ON29", "assay": "Checkerboard titration, FICI", "assay_type": "cell-based", "settings": "E. coli ON29; EDTA + ethanol checkerboard", "method": "as §1"}, "Candida albicans SK4b": {"system": "Candida albicans SK4b", "assay": "Checkerboard titration, FICI", "assay_type": "cell-based", "settings": "C. albicans SK4b; EDTA + ethanol checkerboard", "method": "as §1"}, "Proteus mirabilis ON153": {"system": "Proteus mirabilis ON153", "assay": "Checkerboard titration, FICI", "assay_type": "cell-based", "settings": "P. mirabilis ON153; EDTA + ethanol checkerboard", "method": "as §1"}, "[3]": {"system": "Stenotrophomonas maltophilia ON17", "assay": "Checkerboard titration, FICI", "assay_type": "cell-based", "settings": "S. maltophilia ON17; EDTA + ethanol checkerboard", "method": "as §1"}, "[4]": {"system": "Staphylococcus epidermidis ON170", "assay": "Checkerboard titration, FICI", "assay_type": "cell-based", "settings": "S. epidermidis ON170; EDTA + ethanol checkerboard", "method": "as §1"}, "Serratia marcescens SK2": {"system": "Serratia marcescens SK2", "assay": "Checkerboard titration, FICI", "assay_type": "cell-based", "settings": "S. marcescens SK2; EDTA + ethanol checkerboard", "method": "as §1"}, "[5]": {"system": "Staphylococcus aureus ON89", "assay": "Checkerboard titration, FICI", "assay_type": "cell-based", "settings": "S. aureus ON89; EDTA + ethanol checkerboard", "method": "as §1"}, "[6]": {"system": "Pseudomonas aeruginosa SK1", "assay": "Checkerboard titration, FICI", "assay_type": "cell-based", "settings": "P. aeruginosa SK1; EDTA + ethanol checkerboard", "method": "as §1"}, "E. coli SK2": {"system": "E. coli SK2", "assay": "Checkerboard titration, FICI", "assay_type": "cell-based, Escherichia coli", "settings": "EDTA + ethanol checkerboard", "method": "as §1"}},
  "data": [
    {"smiles": "CCO", "note": "[Ethanol, ethanol, reference compound]", "values": [
      {"measurement": "Concentration alone able to eradicate all established biofilms following 24 h of treatment", "setting": "[1]", "result": 5, "unit": "%"},
      {"measurement": "Inhibitory concentration in combination", "setting": "MRSA ON184", "result": 0.4, "unit": "% w/v"},
      {"measurement": "Inhibitory concentration in combination", "setting": "C. albicans ON47", "result": 0.4, "unit": "% w/v"},
      {"measurement": "Eradication of preformed biofilms after 2 h of exposure", "setting": "[2]", "result": "failed to eradicate"},
      {"measurement": "Inhibitory concentration in combination", "setting": "S. epidermidis SK9", "result": 0.4, "unit": "% w/v"},
      {"measurement": "Inhibitory concentration in combination", "setting": "Escherichia coli ON29", "result": 3.125, "unit": "% w/v"},
      {"measurement": "Inhibitory concentration in combination", "setting": "Candida albicans SK4b", "result": 1.6, "unit": "% w/v"},
      {"measurement": "Inhibitory concentration in combination", "setting": "Proteus mirabilis ON153", "result": 1.6, "unit": "% w/v"},
      {"measurement": "Inhibitory concentration in combination", "setting": "[3]", "result": 0.4, "unit": "% w/v"},
      {"measurement": "Inhibitory concentration in combination", "setting": "[4]", "result": 0.4, "unit": "% w/v"},
      {"measurement": "Inhibitory concentration in combination", "setting": "Serratia marcescens SK2", "result": 3.125, "unit": "% w/v"},
      {"measurement": "Inhibitory concentration in combination", "setting": "[5]", "result": 0.4, "unit": "% w/v"},
      {"measurement": "Inhibitory concentration in combination", "setting": "[6]", "result": 3.125, "unit": "% w/v"},
      {"measurement": "Inhibitory concentration in combination", "setting": "E. coli SK2", "result": 6.25, "unit": "% w/v"}
    ]}
  ]
}
